Experimental findings from ChEMBL document CHEMBL3091352, “Synthesis and pharmacological evaluation of novel bisindolylalkanes analogues” (Bioorg Med Chem, 2013) are described below.

The structures appear in SMILES notation.

The species entered for this test is Homo sapiens. Put plainly: Inhibition of human DNA topoisomerase-2 at 100 uM after 30 mins by agarose gel electrophoresis.

As usually defined, the inhibition is the change of the read-out against control, counted positive when it falls. High values mean a strong effect, low ones a weak effect. On to `COc1cc([C@@H]2c3cc4c(cc3[C@@H](O[C@@H]3O[C@@H]5CO[C@@H](C)O[C@H]5[C@H](O)[C@H]3O)[C@H]3COC(=O)[C@H]23)OCO4)cc(OC)c1O`, for which the inhibition was found to be 90.3%.
